Experimental data published in ChEMBL document CHEMBL1151454, “Failures in clinical treatment of Staphylococcus aureus Infection with daptomycin are associated with alterations in surface charge, membrane phospholipid asymmetry, and drug binding” (Antimicrob Agents Chemother, 2008).
In brackets after ≈: the same amount, converted by molar mass. Non-standard residues stand in square brackets, D forms with d. Residues, ends and D or L forms follow the SMILES beside them. *: point of attachment. NHCH2CH2OH = OCCN*; For = O=C*

What was measured:
Staphylococcus aureus [1] = experiment: Drug binding to daptomycin-transitional Staphylococcus aureus isolate 629 bloodstream form isolated from patient with endocarditis at 40 ug after 10 mins by radial diffusion assay; type: ADME, organism-based
Staphylococcus aureus [2] = experiment: Drug binding to daptomycin-nonsusceptible Staphylococcus aureus isolate 701 bloodstream form isolated from patient with endocarditis at 40 ug after 10 mins by radial diffusion assay; type: ADME, organism-based
Staphylococcus aureus [3] = experiment: Drug binding to daptomycin-nonsusceptible Staphylococcus aureus isolate 703 bloodstream form isolated from patient with endocarditis at 40 ug after 10 mins by radial diffusion assay; type: ADME, organism-based
Staphylococcus aureus [4] = experiment: Drug binding to methicillin-susceptible Staphylococcus aureus isolate 616 bloodstream form isolated from patient with endocarditis at 40 ug after 10 mins by radial diffusion assay; type: ADME, organism-based; conditions: in vivo
Staphylococcus aureus [5] = experiment: Drug binding to daptomycin-nonsusceptible Staphylococcus aureus isolate 701 bloodstream form isolated from patient with endocarditis at 32 ug after 10 mins by radial diffusion assay; type: ADME, organism-based
Staphylococcus aureus [6] = experiment: Antibacterial activity against daptomycin-transitional Staphylococcus aureus isolate 629 bloodstream form isolated from patient with endocarditis after 18 hrs by microdilution technique; type: functional; conditions: Staphylococcus aureus, 629, 18 h
Staphylococcus aureus [7] = experiment: Antibacterial activity against daptomycin-nonsusceptible Staphylococcus aureus isolate 703 bloodstream form isolated from patient with endocarditis after 18 hrs by microdilution technique; type: functional; conditions: Staphylococcus aureus, 703, 18 h
Staphylococcus aureus [8] = experiment: Antibacterial activity against daptomycin-nonsusceptible Staphylococcus aureus isolate 701 bloodstream form isolated from patient with endocarditis after 18 hrs by microdilution technique; type: functional; conditions: Staphylococcus aureus, 701, 18 h
Staphylococcus aureus [9] = experiment: Drug binding to daptomycin-nonsusceptible Staphylococcus aureus isolate 703 bloodstream form isolated from patient with endocarditis at 32 ug after 10 mins by radial diffusion assay; type: ADME, organism-based
Staphylococcus aureus [10] = experiment: Antibacterial activity against methicillin-susceptible Staphylococcus aureus isolate 616 bloodstream form isolated from patient with endocarditis after 18 hrs by microdilution technique; type: functional; conditions: Staphylococcus aureus, 616, 18 h
Staphylococcus aureus [11] = experiment: Drug binding to methicillin-susceptible Staphylococcus aureus isolate 616 bloodstream form isolated from patient with endocarditis at 32 ug after 10 mins by radial diffusion assay; type: ADME, organism-based
Staphylococcus aureus [12] = experiment: Drug binding to daptomycin-transitional Staphylococcus aureus isolate 629 bloodstream form isolated from patient with endocarditis at 32 ug after 10 mins by radial diffusion assay; type: ADME, organism-based

Which results are given for H-ALYKKFKKKLLKSLKRLG-OH?
Drug uptake (Staphylococcus aureus [1]): 11.7 µg/mL; Drug uptake (Staphylococcus aureus [2]): 11.7 µg/mL; Drug uptake (Staphylococcus aureus [3]): 8 µg/mL; Drug uptake (Staphylococcus aureus [4]): 12.4 µg/mL

What does the source list for CC(C)C[C@@H](NC(=O)[C@H](C)NC(=O)CNC(=O)[C@@H](NC=O)C(C)C)C(=O)N[C@@H](C)C(=O)N[C@@H](C(=O)N[C@H](C(=O)N[C@@H](C(=O)N[C@@H](Cc1c[nH]c2ccccc12)C(=O)N[C@H](CC(C)C)C(=O)N[C@@H](Cc1c[nH]c2ccccc12)C(=O)N[C@H](CC(C)C)C(=O)N[C@@H](Cc1c[nH]c2ccccc12)C(=O)N[C@H](CC(C)C)C(=O)N[C@@H](Cc1c[nH]c2ccccc12)C(=O)NCCO)C(C)C)C(C)C)C(C)C [GRAMICIDIN D] (For-VGA[dL]A[dV]V[dV]W[dL]W[dL]W[dL]W-NHCH2CH2OH)?
Drug uptake (Staphylococcus aureus [5]): 11 µg/mL; MIC (Staphylococcus aureus [6]): 32 µg/mL (≈ 17 µM); MIC (Staphylococcus aureus [7]): 32 µg/mL (≈ 17 µM); MIC (Staphylococcus aureus [8]): 32 µg/mL (≈ 17 µM); Drug uptake (Staphylococcus aureus [9]): 9 µg/mL; MIC (Staphylococcus aureus [10]): 32 µg/mL (≈ 17 µM); Drug uptake (Staphylococcus aureus [11]): 12 µg/mL; Drug uptake (Staphylococcus aureus [12]): 10 µg/mL
